From patent US11357777B2, “Use of sGC stimulators for the treatment of nonalcoholic steatohepatitis (NASH)” (Cyclerion Therapeutics, Inc., priority 2016, dated 2022) come the findings set out here.

The subject of data set [1] is mice fed a high-fat diet deficient in choline and methionine. Kind of data set: Mouse on a methionine/choline deficient high-fat diet (MCD-HFD). The settings on record: for macrophage numbers, inflammatory infiltrate by F4/80 immunohistochemistry: statistically significant; for levels of mRNA expression for all markers of liver fibrosis / levels of mRNA expression for all markers of liver inflammation: vs control Group II. In kind it is in vivo. The protocol:
The study was performed in mice fed a high-fat diet deficient in choline and methionine (MCD-HFD or MCD diet), a model that reproduces the clinical manifestations of human steatohepatitis and fibrosis in mice. These mice received the sGC stimulator Compound B prophylactically (at two doses, 1 and 3 mg/kg/day in the food), starting at the same time as the start of the administration of the high-fat diet deficient in choline/methionine, and before animals started manifesting clinical signs of steatohepatitis.
The prophylactic treatment with Compound B proceeded for a total of 9 weeks simultaneously with the high-fat diet deficient in choline/methionine administration. At the end of the treatment, the degree of inflammation was assessed in the liver by determining levels of gene expression for IL-6, TNFα, IL-10, MCP-1β, IL-1 and IL-Ira, by real-time PCR. Inflammation levels were also determined by assessing inflammatory infiltrate by F4/80 immunohistochemistry, and necroinflammation was assessed by hematoxylin-eosin staining. Liver fibrosis was determined by measuring levels of gene expression for collagen type I and II, MMP-2, TIMP-1 and TGFβ1 at the mRNA level. Histological analysis was carried out of tissue sections stained with Masson's trichrome and Sirius Red.
Group I (n=5): Chow Control group received a matching sucrose diet equivalent to the high-fat diet (HFD) for 9 weeks.
Group II (n=15): Choline/methionine deficient HFD Control group (MCD control group) received a Choline/methionine deficient HFD diet for 9 weeks.
Group III (n=10): Choline/methionine deficient HFD for 9 weeks supplemented with Compound B dosed in food (1 mg/kg body weight/day). (IW1 group)
Group IV (n=10): Choline/methionine deficient HFD for 9 weeks supplemented with Compound B dosed in food (3 mg/kg body weight/day). (IW3 group)
After treatment, animals were sacrificed and liver and blood samples were collected. The effects of the sGC stimulator on liver weight, steatosis, inflammation and fibrosis were evaluated as follows:
Total RNA was obtained with the RNAqueous kit. RNA concentrations were assessed in a UV-spectrophotometer and the RNA's integrity tested on a 6000 LabChip in a 2100 Bioanalyzer (Agilent Technologies, Palo Alto, Calif.). First strand cDNA synthesis was performed by incubating 1 μg of total RNA with 2.5 μl of 10×RT buffer, 1 μl of 25×dNTPs, 2.5 μl of 10× Primers and 1.25 μl of reverse transcriptase (25 μl final volume) for 10 minutes at 25° C. following 2 hours at 37° C. in a ABI thermal cycler. Ready-to-use primer and probe sets pre-developed by Applied Biosystems (TaqMan Gene Expression Assays) were used to quantify gene expression using R-actin as an endogenous control. Briefly, PCR reactions were performed in duplicate using the Universal TaqMan 2×PCR mastermix in a volume of 20 μl containing 1.25 μl cDNA. Real-time quantitative PCR was performed with an ABI Prism 7900 Sequence Detection System (Applied Biosystems) using the fluorescent TaqMan methodology. Real time PCR results were analyzed with the Sequence Detector Software version 2.1 (Applied Biosystems) and relative quantitation of gene expression was performed using the 2-ΔΔ Ct method. (User Bulletin #2; http://docs.appliedbiosystems.com/pebiodocs/04303859.pdf).
Tissue samples fixed in 10% formalin were embedded in paraffin, cut into 5 μm sections, stained with H&E and analyzed by a registered pathologist unaware of the treatments. Tissue sections were incubated for 10 minutes in 0.5% thiosemicarbazide and stained in 0.1% Sirius Red F3B in saturated picric acid for 1 hour, and subsequently washed with an acetic acid solution (0.5%). Masson's trichrome staining was performed at the Pathology Department of the Hospital Clinic, Barcelona, Spain. […]

Data set [2] has as its system TNFα, IL-6 and IL-10 cytokine levels. The data set can be described thus: LPS model of acute inflammation in mice. In kind it is in vivo. The conditions noted are these: 10 mg/kg oral gavage; LPS IV 1 h later; blood 2 h after LPS. The protocol:
Acute murine models of inflammation have previously been described (see for example, Engelberts I et. al., Lymphokine Cytokine Res. 10(1-2):127-31 (1991) and Durez P et al., J Exp Med. 177:551-5 (1993)). In these models, mice or rats are administered the compound of interest followed by an injection of LPS (LPS stands for lipopolysaccharide, 100 ng IV administration) one hour later. LP S is a component of bacterial cell walls and elicits a rapid and strong systemic inflammatory response. Two hours after LPS injection, blood is collected, plasma and serum are isolated and cytokine levels are measured. The concentrations of TNFα and IL-6 in blood increase after stimulation with bacterial lipopolysaccharide (LP S). Measurement of cytokine production is carried out with either ELISA or cytokine bead assay (CBA).
The sGC stimulator Compound B was assessed in such an animal model using C57BL/6 mice. The structure of Compound B is depicted below:
The ability of Compound B to modulate cytokine release in vivo was assessed. Compound B was administered by oral gavage (formulated in methylcellulose as the carrier) at 1 and 10 mg/kg doses and the levels of the pro-inflammatory cytokines TNFα and IL-6 were measured, as well as the anti-inflammatory cytokine IL-10. Vehicle (V) and dexamethasone (dex, 5 mg/kg) were used as negative and positive controls, respectively, and 10 mice were used per group.

Data set [3] is described as follows: Single ascending dose Phase I study in healthy volunteers. In kind it is in vivo, human. The conditions noted are these: oral capsule, top-line clinical data. The text has this:
In a randomized, double-blind, placebo-controlled, single ascending dose Phase I study enrolling 46 healthy volunteers, participants were randomized 3:1 to receive a single dose of Compound B or placebo administered via an oral capsule.

[4] abbreviates: 3 mg/kg in food, 9 weeks (Group IV) vs control Group II.
Where [5] appears, read: Group III (1 mg/kg/day), 9 weeks.
Where [6] appears, read: Group IV (3 mg/kg/day), 9 weeks.

In the case of `OC(CNc1nc(-c2cc(-c3ccon3)n(Cc3ccccc3F)n2)ncc1F)(C(F)(F)F)C(F)(F)F` [Compound B], in data set [1] (1 mg/kg (Group III) vs control group II), the “Total NAS” value is “reduced”. In addition, the “fibrosis as detected using Picrosirius Red staining” value in data set [1] (1 mg/kg in food, 9 weeks (Group III)) is reported as “significantly reduced”. Besides, the “Total NAS” value in data set [1] (3 mg/kg (Group IV) vs control group II) was “reduced”. In addition, the “fibrosis as detected using Picrosirius Red staining” value in data set [1] (3 mg/kg in food, 9 weeks (Group IV)) was “significantly reduced”. Further, in data set [1] (setting [4]), the “liver tissue weight versus total body weight ratio” value is given as “statistically significant reduction” and the “percentage of white adipose tissue in the liver” value was “statistically significant reduction”. Also, the “reduction of fibrosis by analysis of trichrome stain and α-SMA deposition” value in data set [1] (1 and 3 mg/kg in food, 9 weeks, FIG. 4) is reported as “confirmed”. The “macrophage numbers, inflammatory infiltrate by F4/80 immunohistochemistry” value in data set [1] (Group III (1 mg/kg) vs control group II) is “decrease”. Besides, in data set [1] (setting [5]), the “levels of mRNA expression for all markers of liver fibrosis” value is “reduced in a statistically significant manner” and the “levels of mRNA expression for all markers of liver inflammation” value is recorded as “reduced in a statistically significant manner”. Further, the “macrophage numbers, inflammatory infiltrate by F4/80 immunohistochemistry” value in data set [1] (Group IV (3 mg/kg) vs control group II) is recorded as “decrease”. Besides, in data set [1] (setting [6]), the “levels of mRNA expression for all markers of liver fibrosis” value was “reduced in a statistically significant manner” and the “levels of mRNA expression for all markers of liver inflammation” value was “reduced in a statistically significant manner”. For the same compound, in data set [2], the “levels of IL-6” value is given as “significantly reduced”, the “levels of IL-10” value is on record as “increasing” and the “levels of TNFα” value was “significantly reduced”. The distribution to tissues result in data set [3] was “evidence of extensive distribution to tissues”.
